According to article PMC5309861, “Mechanistic insight into the substrate specificity of 1,2-β-oligoglucan phosphorylase from Lachnoclostridium phytofermentans” (Scientific Reports, 2017):

Biological target: T1, LpSOGP (Lachnoclostridium phytofermentans, UniProt A9KJS6)
T1 construct: gene Cphy_0694
T1 sequence (A9KJS6 1-1113): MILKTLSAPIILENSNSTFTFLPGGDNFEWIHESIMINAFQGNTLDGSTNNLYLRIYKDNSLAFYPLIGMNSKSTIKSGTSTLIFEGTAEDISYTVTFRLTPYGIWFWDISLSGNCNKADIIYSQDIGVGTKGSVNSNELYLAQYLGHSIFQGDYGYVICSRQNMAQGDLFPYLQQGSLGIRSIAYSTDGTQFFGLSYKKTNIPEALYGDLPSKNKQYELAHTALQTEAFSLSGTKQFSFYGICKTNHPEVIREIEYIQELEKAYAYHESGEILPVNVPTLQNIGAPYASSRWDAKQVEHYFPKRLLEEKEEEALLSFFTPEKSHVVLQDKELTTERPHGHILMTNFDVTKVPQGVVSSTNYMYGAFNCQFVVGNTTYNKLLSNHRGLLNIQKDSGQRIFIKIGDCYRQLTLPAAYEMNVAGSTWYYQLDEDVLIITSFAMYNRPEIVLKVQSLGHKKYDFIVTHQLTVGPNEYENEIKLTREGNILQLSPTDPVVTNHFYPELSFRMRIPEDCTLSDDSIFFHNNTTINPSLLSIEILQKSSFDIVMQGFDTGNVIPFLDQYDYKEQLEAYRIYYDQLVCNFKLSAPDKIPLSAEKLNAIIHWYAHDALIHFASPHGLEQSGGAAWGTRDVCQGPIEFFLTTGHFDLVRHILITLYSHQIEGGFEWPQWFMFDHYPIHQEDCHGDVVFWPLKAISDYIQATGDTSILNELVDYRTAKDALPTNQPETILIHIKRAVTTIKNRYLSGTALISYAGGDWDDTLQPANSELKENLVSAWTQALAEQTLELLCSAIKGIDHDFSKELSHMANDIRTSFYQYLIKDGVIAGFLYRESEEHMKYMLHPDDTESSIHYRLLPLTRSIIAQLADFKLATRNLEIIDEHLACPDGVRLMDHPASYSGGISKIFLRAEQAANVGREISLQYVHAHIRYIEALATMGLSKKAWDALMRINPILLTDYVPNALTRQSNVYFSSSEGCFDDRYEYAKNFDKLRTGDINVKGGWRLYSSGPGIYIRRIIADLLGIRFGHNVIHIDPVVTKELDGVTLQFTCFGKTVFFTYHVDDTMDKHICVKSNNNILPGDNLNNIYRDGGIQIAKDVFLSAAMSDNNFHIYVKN
Settings: phosphorolysis; pH 7.5, 30 °C; co-substrate oligosaccharide not stated
Text: G1P release, coupled phosphoglucomutase / G6PDH assay, Michaelis-Menten fit on LpSOGP

Question: Which “Synthesis / kcat/Km / (s^-1 mM^-1)” value does the source give for `O=P(O)(O)O` [Pi, inorganic phosphate] here?
Answer: 11 ± 1 mM
